Results taken from the SangsterLogP compilation.

Row | SMILES | logP
1 | O=C(O)CCCCCON=C(c1ccccc1)c1ncccn1 | 1.07
2 | O=C(O)CCCCO/N=C(\c1ccccc1)c1ccncn1 | -0.19
3 | O=C(O)CCCCON=C(c1cccc(C(F)(F)F)c1)c1ccncn1 | 1.74
4 | O=C(O)CCCO/N=C(\c1ccccc1)c1ccncn1 | -0.47
5 | O=C(O)CCCCCO/N=C(/c1cccc(C(F)(F)F)c1)c1ncccn1 | 1.94
6 | O=C(O)CCCCCO/N=C(\c1cccc(C(F)(F)F)c1)c1ccncn1 | 2.49
7 | O=C(O)CCCCO/N=C(\c1cccc(C(F)(F)F)c1)c1ncccn1 | 1.53
8 | O=C(O)CCCCO/N=C(\c1ccccc1)c1ncccn1 | 0.5
9 | O=C(O)CCCO/N=C(\c1ccccc1)c1ncccn1 | 0.36
10 | O=C(O)CCCCO/N=C(\c1cncnc1)c1cccc(C(F)(F)F)c1 | 0.63
11 | O=C(O)CCCCCO/N=C(/c1ccccc1)c1ccncn1 | 0.08
12 | O=C(O)CCCO/N=C(/c1ccccc1)c1cncnc1 | -0.38
13 | O=C(O)CCCCCO/N=C(\c1cncnc1)c1cccc(C(F)(F)F)c1 | 1.07
14 | O=C(O)CCCCO/N=C(/c1ccnnc1)c1cccc(C(F)(F)F)c1 | 1.81
15 | O=C(O)CCCCO/N=C(\c1cccc(C(F)(F)F)c1)c1cnccn1 | 1.08
16 | O=C(O)CCCCCO/N=C(/c1ccnnc1)c1cccc(C(F)(F)F)c1 | 2.27
17 | O=C(O)CCCCCO/N=C(\c1cccc(C(F)(F)F)c1)c1cnccn1 | 2.56
18 | O=C(O)CCCCO/N=C(\c1ccccc1)c1cncnc1 | -0.21
19 | O=C(O)CCCCCO/N=C(\c1cccc(C(F)(F)F)c1)c1cccnn1 | 2.19
